The results in this text go back to PubChem BioAssay AID330 (DTP/NCI, 2004).

The structures appear in SMILES notation. Values joined by “and” are separate entries in the source; they are usually repeats but may differ in a detail not shown here. Equal values may be shown once. Inconclusive results and toxic doses are left out.

In this test the test system is P388 leukemia ip, CD2F1 mice, survival T/C. As to the kind of experiment: NCI In Vivo Anticancer Drug Screen. Data for tumor model P388 Leukemia (intraperitoneal) in CD2F1 (CDF1) mice. To be noted: endpoint: median survival time, higher = longer survival. The essentials: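 Mice carrying the transplanted tumor received test compound or vehicle. Survival was recorded in each group, and the value is the treated-group measurement divided by that of the vehicle-treated control group.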

Turning to `O=C(O)c1ccccc1C(=O)c1ccc(CBr)cc1`, the T/C (dose: 1.56 mg/kg/injection, schedule: Q01DX009 (ip), vehicle: saline with Tween-80) is 109 % of control; the T/C (dose: 3.13 mg/kg/injection, schedule: Q01DX009 (ip), vehicle: saline with Tween-80) was 109 % of control; the T/C (dose: 6.25 mg/kg/injection, schedule: Q01DX009 (ip), vehicle: saline with Tween-80) was 109 % of control and 113 % of control; the T/C (dose: 6.25 mg/kg/injection, schedule: Q04DX003 (ip), vehicle: saline with Tween-80) was 91 % of control; the T/C (dose: 12.5 mg/kg/injection, schedule: Q04DX003 (ip), vehicle: saline with Tween-80) is 95 % of control; the T/C (dose: 25.0 mg/kg/injection, schedule: Q04DX003 (ip), vehicle: saline with Tween-80) was 108 % of control.
For the molecule `CCC[CH2][Sn]1([CH2]CCC)[O]OC(c2ccccc2)[O]1` (configuration not stated), the T/C is, setting by setting: (dose: 4.5 mg/kg/injection, schedule: Q01DX009 (ip), vehicle: other) 150 % of control; (dose: 625.0 micrograms/kg/injection, schedule: Q04DX003 (ip), vehicle: saline with Tween-80) 115 % of control; (dose: 1250.0 micrograms/kg/injection, schedule: Q04DX003 (ip), vehicle: saline with Tween-80) 120 % of control; (dose: 5000.0 micrograms/kg/injection, schedule: Q04DX003 (ip), vehicle: saline with Tween-80) 165 % of control.
As to `CC(C)=CCCC(C)C1CCC2(CO2)C2CC=C(C)C2C1O` (configuration not stated), the T/C was 102 % of control (dose: 20.0 mg/kg/injection, schedule: Q01DX009 (ip), vehicle: Klucel (hydroxypropylcellulose) (HPC)); 96 % of control (dose: 40.0 mg/kg/injection, schedule: Q01DX009 (ip), vehicle: Klucel (hydroxypropylcellulose) (HPC)); 102 % of control (dose: 80.0 mg/kg/injection, schedule: Q01DX009 (ip), vehicle: Klucel (hydroxypropylcellulose) (HPC)); 99 % of control (dose: 160.0 mg/kg/injection, schedule: Q01DX009 (ip), vehicle: Klucel (hydroxypropylcellulose) (HPC)).
Turning to `CC(=O)C1(O)Cc2c(O)c3c(c(O)c2C(OC2CC(N)C(O)C(C)O2)C1)C(=O)c1ccccc1C3=O` (configuration not stated), the T/C is 116 % of control (dose: 0.03 mg/kg/injection, schedule: Q01DX009 (ip), vehicle: water); 150 % of control and 155 % of control and 158 % of control (dose: 0.1 mg/kg/injection, schedule: Q01DX009 (ip), vehicle: water); 151 % of control (dose: 0.12 mg/kg/injection, schedule: Q01DX005 (ip), vehicle: water); 106 % of control (dose: 0.15 mg/kg/injection, schedule: Q04DX003 (ip), vehicle: water); 167 % of control and 171 % of control and 183 % of control (dose: 0.2 mg/kg/injection, schedule: Q01DX009 (ip), vehicle: water); 166 % of control (dose: 0.21 mg/kg/injection, schedule: Q04DX003 (ip), vehicle: water). Besides, the T/C is 164 % of control (dose: 0.25 mg/kg/injection, schedule: Q01DX005 (ip), vehicle: water); 114 % of control (dose: 0.3 mg/kg/injection, schedule: Q04DX003 (ip), vehicle: water); 170 % of control (dose: 0.36 mg/kg/injection, schedule: Q04DX003 (ip), vehicle: water); 170 % of control (dose: 0.39 mg/kg/injection, schedule: Q01DX009 (ip), vehicle: water); 205 % of control (dose: 0.4 mg/kg/injection, schedule: Q01DX009 (ip), vehicle: water); 180 % of control (dose: 0.5 mg/kg/injection, schedule: Q01DX005 (ip), vehicle: water). In addition, the T/C (dose: 0.5 mg/kg/injection, schedule: Q01DX005 (oral), vehicle: water) was 104 % of control; the T/C (dose: 0.6 mg/kg/injection, schedule: Q04DX003 (ip), vehicle: water) is 118 % of control; the T/C (dose: 0.78 mg/kg/injection, schedule: Q01DX009 (ip), vehicle: water) was 173 % of control; the T/C (dose: 1.0 mg/kg/injection, schedule: Q01DX005 (ip), vehicle: water) was 114 % of control; the T/C (dose: 1.0 mg/kg/injection, schedule: Q01DX005 (oral), vehicle: water) is 107 % of control; the T/C (dose: 1.3 mg/kg/injection, schedule: Q01DX001 (ip), vehicle: water) was 97 % of control. The T/C (dose: 1.8 mg/kg/injection, schedule: Q01DX001 (ip), vehicle: water) is 97 % of control; the T/C (dose: 2.0 mg/kg/injection, schedule: Q01DX005 (oral), vehicle: water) is 112 % of control; the T/C (dose: 2.4 mg/kg/injection, schedule: Q04DX003 (ip), vehicle: water) is 152 % of control and 174 % of control; the T/C (dose: 4.0 mg/kg/injection, schedule: Q01DX005 (oral), vehicle: water) was 152 % of control; the T/C (dose: 4.8 mg/kg/injection, schedule: Q04DX003 (ip), vehicle: water) was 102 % of control and 106 % of control; the T/C (dose: 8.0 mg/kg/injection, schedule: Q01DX005 (oral), vehicle: water) is 107 % of control. The T/C (dose: 9.6 mg/kg/injection, schedule: Q04DX003 (ip), vehicle: water) is 96 % of control.
For the molecule `O=c1n(-c2ccccc2)c(=O)n2n1C1C=CC2C2C3OC3C21` (configuration not stated), the T/C is 100 % of control (dose: 12.5 mg/kg/injection, schedule: Q04DX003 (ip), vehicle: Klucel (hydroxypropylcellulose) (HPC)); 101 % of control (dose: 25.0 mg/kg/injection, schedule: Q04DX003 (ip), vehicle: Klucel (hydroxypropylcellulose) (HPC)); 108 % of control (dose: 50.0 mg/kg/injection, schedule: Q04DX003 (ip), vehicle: Klucel (hydroxypropylcellulose) (HPC)).
For `NCP(=O)(CN)CN`, the T/C was 99 % of control (dose: 50.0 mg/kg/injection, schedule: Q01DX009 (ip), vehicle: Klucel (hydroxypropylcellulose) (HPC)); 100 % of control (dose: 100.0 mg/kg/injection, schedule: Q01DX009 (ip), vehicle: Klucel (hydroxypropylcellulose) (HPC)); 100 % of control (dose: 200.0 mg/kg/injection, schedule: Q01DX009 (ip), vehicle: Klucel (hydroxypropylcellulose) (HPC)).
`COc1cc(Oc2c(C)c(Cl)c(OC)c(Cl)c2OC)c2c(c1Cl)COC2=O`: the T/C by setting is: (dose: 7.5 mg/kg/injection, schedule: Q01DX005 (ip), vehicle: Klucel (hydroxypropylcellulose) (HPC)) 97 % of control; (dose: 15.0 mg/kg/injection, schedule: Q01DX005 (ip), vehicle: Klucel (hydroxypropylcellulose) (HPC)) 97 % of control; (dose: 30.0 mg/kg/injection, schedule: Q01DX005 (ip), vehicle: Klucel (hydroxypropylcellulose) (HPC)) 100 % of control.
On to `CC(C)N1COCO[C@H]2CCC[C@@H]21`, for which the T/C was 113 % of control (dose: 25.0 mg/kg/injection, schedule: Q01DX005 (ip), vehicle: Klucel (hydroxypropylcellulose) (HPC)); 93 % of control (dose: 100.0 mg/kg/injection, schedule: Q01DX001 (ip), vehicle: Klucel (hydroxypropylcellulose) (HPC)); 113 % of control (dose: 100.0 mg/kg/injection, schedule: Q01DX005 (ip), vehicle: Klucel (hydroxypropylcellulose) (HPC)); 90 % of control (dose: 200.0 mg/kg/injection, schedule: Q01DX001 (ip), vehicle: Klucel (hydroxypropylcellulose) (HPC)).
Regarding `C[Si](C)(CNCCN)O[Si](C)(C)CNCCN`, the T/C is, setting by setting: (dose: 60.0 mg/kg/injection, schedule: Q01DX005 (ip), vehicle: saline) 99 % of control; (dose: 120.0 mg/kg/injection, schedule: Q01DX005 (ip), vehicle: saline) 90 % of control; (dose: 240.0 mg/kg/injection, schedule: Q01DX005 (ip), vehicle: saline) 101 % of control.
With `CCOC(=O)C(C#N)C1(c2ccccc2)CCCCC1` (configuration not stated), the T/C is, setting by setting: (dose: 50.0 mg/kg/injection, schedule: Q01DX009 (ip), vehicle: saline with Tween-80) 112 % of control; (dose: 100.0 mg/kg/injection, schedule: Q01DX009 (ip), vehicle: saline with Tween-80) 101 % of control; (dose: 200.0 mg/kg/injection, schedule: Q01DX009 (ip), vehicle: saline with Tween-80) 101 % of control.
Take `OC1C2CCC1C(N1CCOCC1)CC2` (configuration not stated): the T/C runs as follows: (dose: 50.0 mg/kg/injection, schedule: Q01DX009 (ip), vehicle: saline sonified) 100 % of control; (dose: 100.0 mg/kg/injection, schedule: Q01DX009 (ip), vehicle: saline sonified) 100 % of control; (dose: 200.0 mg/kg/injection, schedule: Q01DX009 (ip), vehicle: saline sonified) 105 % of control.
Turning to `O=C(O)Cc1c(-c2noc(-c3ccccc3)c2CC(=O)O)noc1-c1ccccc1`, the T/C runs as follows: (dose: 60.0 mg/kg/injection, schedule: Q01DX005 (ip), vehicle: saline with Tween-80) 99 % of control; (dose: 120.0 mg/kg/injection, schedule: Q01DX005 (ip), vehicle: saline with Tween-80) 103 % of control; (dose: 240.0 mg/kg/injection, schedule: Q01DX005 (ip), vehicle: saline with Tween-80) 108 % of control.
Regarding `COc1cc(-c2ccc(N=Nc3c(O)c(C(=O)Nc4ccccc4OC)cc4ccccc34)c(OC)c2)ccc1N=Nc1c(O)c(C(=O)Nc2ccccc2OC)cc2ccccc12`, the T/C is 90 % of control (dose: 6.25 mg/kg/injection, schedule: Q01DX005 (ip), vehicle: saline with Tween-80); 96 % of control (dose: 12.5 mg/kg/injection, schedule: Q01DX005 (ip), vehicle: saline with Tween-80); 89 % of control (dose: 25.0 mg/kg/injection, schedule: Q01DX005 (ip), vehicle: saline with Tween-80).
